According to patent US20260138970A1, “MODULATORS OF THE CALCIUM SIGNALING CASCADE” (FONDAZIONE TELETHON ETS, priority 2022, published 2026):

Tests used:
ENaC = experiment: Short-circuit current recordings on human cultured bronchial epithelia, ENaC function; format: cell-based; settings: apical addition; ARN7149 10 μM, ARN11391 20 μM, ARN4550 20 μM, UTP 10 nM; FIG. 9
From the text: In a further experimental setting, snapwell supports (cc3801, Corning) carrying differentiated bronchial epithelia generated in vitro were mounted in a vertical chamber resembling an Ussing system with internal fluid circulation (EM-CSYS-8, Physiologic Instruments, San Diego, CA, USA). The apical and basolateral hemichambers were filled with a solution containing (in mM): 126 NaCl, 0.38 KH2PO4, 2.13 K2HPO4, 1 MgSO4, 1 CaCl2), 24 NaHCO3, and 10 glucose. Both sides were continuously bubbled with a gas mixture containing 5% CO2 and 95% air. The temperature of the solution was kept at 37° C. throughout the experiment.
During recordings, the following molecules (in addition to ARN7149, ARN11391, and ARN4550) were added in the apical solution: elastase (SE2093002, Serva); UTP (U6625, Merck); amiloride (A7410, Merck). Transepithelial voltage was short-circuited with a voltage-clamp (VCC MC8, Physiologic Instruments, San Diego, CA, USA) connected to the apical and basolateral chambers via Ag—AgCl electrodes and agar bridges (2% agar in 1 M KCl). The offset between voltage electrodes and the fluid resistance were cancelled before experiments. The resulting short-circuited current from each channel was recorded on a personal computer with the Acquire & Analize 2.3 software (Physiologic Instruments, San Diego, CA, USA).

[1] = tested on: protease-activated and bradykinin receptors; settings: protease-activated and bradykinin receptor agonists; cited from earlier work
CCK1 receptor = molecular target: T1, CCK1 receptor (Homo sapiens, UniProt P32238); experiment: Fluo-4 Ca2+ assay in Chem-1 cells expressing CCK1 receptor; format: cell-based; settings: CCK8s 0.25 nM; vs vehicle (DMSO); FIG. 10
T1 construct: host or cells: Chem-1 cells
T1 sequence (P32238 1-428): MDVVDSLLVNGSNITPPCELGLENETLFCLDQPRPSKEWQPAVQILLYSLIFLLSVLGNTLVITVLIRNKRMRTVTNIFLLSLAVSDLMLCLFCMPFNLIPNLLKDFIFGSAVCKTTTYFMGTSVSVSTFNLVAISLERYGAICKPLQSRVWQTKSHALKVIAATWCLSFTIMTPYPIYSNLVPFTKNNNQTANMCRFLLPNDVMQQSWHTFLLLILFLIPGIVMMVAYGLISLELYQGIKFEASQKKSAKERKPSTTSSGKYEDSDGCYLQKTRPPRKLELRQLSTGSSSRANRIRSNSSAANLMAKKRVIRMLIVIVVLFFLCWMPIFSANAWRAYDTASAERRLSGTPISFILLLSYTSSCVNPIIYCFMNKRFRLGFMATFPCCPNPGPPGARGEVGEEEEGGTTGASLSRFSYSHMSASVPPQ
Description: Chem-1 cells expressing the CCK1 receptor (HTS184RTA, Merck) were cultured in Dulbecco's MEM/F12 (ECM0090L, EuroClone) with 10% fetal bovine serum, 2 mM L-glutamine, 100 U/ml penicillin and 100 μg/ml streptomycin.
In a further experimental setting, experiments were performed using as above the FLUOstar Omega (BMG Labtech, Offenburg, Germany) microplate reader equipped with syringe pumps and optical excitation/emission filters optimized for yellow fluorescent protein (YFP) fluorescence (ET500/20× and ET535/30m, respectively; Chroma Technology Corporation). FRT and Chem-1 cells were cultured until confluence in 96-well microplates (cc3603, Corning). Cells were washed 2 times with PBS (150 μl/wash) and then loaded for 1 h at 37° C. with 5 μM Fluo-4/AM (Thermo Fisher Scientific; catalog number: F23917) in PBS containing 10 mM glucose, 0.5 mM sulfinpyrazone, and 1% fetal bovine serum. […] Fluo-4 fluorescence (500 nm excitation, 535 nm emission) was detected every 200 ms for 16-40 s. Two seconds after the start of fluorescence recording, the reader automatically injected 165 μl of a modified PBS containing 136 mM KCl instead of NaCl. […] The Fluo-4 fluorescence increase was quantified using a procedure compiled in Microsoft Excel after background subtraction and normalization for the initial value measured before UTP or CCK8s addition.

[2] = tested on: protease-activated receptors; experiment: Fluo-4 Ca2+ assay, SLIGR-NH2 stimulus, HEKR2 cells; format: cell-based; settings: SLIGR-NH2 4 μM; compounds 10 μM; FIG. 5C bottom
Description: Experiments were performed using the microplate reader described for the HS-YFP assay. FRT and HEK293 cells were cultured until confluence in 96-well microplates (3603, Corning). Cells were washed 2 times with PBS (150 μl/wash) and then loaded for 1 h at 37° C. with 5 μM Fluo-4/AM (Thermo Fisher Scientific; catalog number: F23917) in PBS containing 10 mM glucose, 0.5 mM sulfinpyrazone, and 1% fetal bovine serum. After loading, cells were washed 2 times with PBS-glucose-sulfinpyrazone (150 μl/wash) and incubated for 20 min at 37° C. with 60 μl of PBS plus 10 mM glucose and 0.5 mM sulfinpyrazone containing compounds of interest at 10 μM final concentration or vehicle. Each well was assayed individually. Fluo-4 fluorescence (500 nm excitation, 535 nm emission) was detected every 200 ms for 16-40 s. Two seconds after the start of fluorescence recording, the reader automatically injected 165 μl of a modified PBS containing 136 mM KCl instead of NaCl. This solution also contained 10 mM glucose, 0.5 mM sulfinpyrazone, and UTP or SLIGR-NH2 (CAS #171436-38-7) at a final concentration that depended on the specific cell type. […] The Fluo-4 fluorescence increase was quantified using a procedure compiled in Microsoft Excel after background subtraction and normalization for the initial value measured before UTP addition.

Compound | ENaC current decay (ENaC inhibition), short-circuit current (ENaC) | effectiveness by agonist inducing Ca2+ mobilization (UTP vs other GPCR agonists) [1] | effect on CCK8s-induced Ca2+ mobilization (CCK1 receptor) | potentiation of SLIGR-NH2 stimulus (Ca2+ mobilization), HEKR2 cells [2]
CCc1cc(-c2cc(NCCCOc3ccccc3C)nc(N)n2)n(C)n1 [ARN7149, 6-(3-Ethyl-1-methyl-1H-pyrazol-5-yl)-N^4-(3-(o-tolyloxy)propyl)pyrimidine-2,4-diamine] | caused ENaC current decay | only effective when Ca^2+ mobilization is induced by UTP | lack of activity | 
OCc1ccccc1CN(Cc1ccnc(N2CCCC2)n1)c1ccc(F)cc1 [ARN4550, [2-[[4-Fluoro-N-[(2-pyrrolidin-1-ylpyrimidin-4-yl)methyl]anilino]methyl]phenyl]methanol] | caused ENaC current decay |  | significantly enhanced | only compound that potentiated
